These results are taken from patent publication US20230181536A1, “ANTICANCER COMBINATION THERAPY WITH N-(1-ACRYLOYL-AZETIDIN-3-YL)-2-((1H-INDAZOL-3-YL)AMINO)METHYL)-1H-IMIDAZOLE-5-CARBOXAMIDE INHIBITOR OF KRAS-G12C” (TAIHO PHARMACEUTICAL CO., LTD., priority 2020, published 2023).

As a reminder, the IC50 is the midpoint of a concentration-inhibition curve.

For this assay, the target named is T1, KRAS G12C (Homo sapiens, UniProt P01116, G12C).
T1 construct: KRAS G12C (amino acid region: 1-169)
T1 sequence (P01116 1-169 isoform P01116-2 G12C): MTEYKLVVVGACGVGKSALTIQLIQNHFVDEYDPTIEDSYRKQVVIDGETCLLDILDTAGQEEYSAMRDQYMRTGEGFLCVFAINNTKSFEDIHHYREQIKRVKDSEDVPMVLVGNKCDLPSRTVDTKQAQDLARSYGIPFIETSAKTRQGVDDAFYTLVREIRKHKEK
In words: Inhibitory activity on the KRAS G12C nucleotide (GDP-GTP) exchange reaction. Conditions: Bodipy FL GDP-bound KRAS G12C 25 nM; preincubation at 25° C. for 4 hours; SOS1 100 nM, GppNHp 1 μM, reaction for 30 minutes. Type of assay: biochemical. In short, it runs like this: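 Bodipy FL-GDP-loaded KRAS G12C (aa 1-169, 25 nM) preincubated with compound 4 h at 25 °C in pH 7.5 Tris buffer, 5% DMSO; exchange started with SOS1 (aa 564-1049, 100 nM) and 1 μM GppNHp for 30 min. Fluorescence change (ex 485/em 520 nm) normalized to DMSO and no-GppNHp controls; IC50 calculated.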
Take `C=CC(=O)N1CC(NC(=O)c2c(Cl)nc(CNc3n[nH]c4cc(Cl)c(C(C)(C)C)cc34)n2CC(F)F)C1` [Example 100, N-(1-acryloylazetidin-3-yl)-2-(((5-(tert-butyl)-6-chloro-1H-indazol-3-yl)amino)methyl)-4-chloro-1-(2,2-difluoroethyl)-1H-imidazole-5-carboxamide]: the IC50 amounted to 14 nM.
With `C=CC(=O)N1C[C@@H](CN(C)C)[C@@H](NC(=O)c2c(C)nc(CNc3n[nH]c4cc(Cl)c(C(C)(C)C)cc34)n2C)C1` [Example 68, N-((3R,4R)-1-acryloyl-4-((dimethylamino)methyl)pyrrolidin-3-yl)-2-(((5-(tert-butyl)-6-chloro-1H-indazol-3-yl)amino)methyl)-1,4-dimethyl-1H-imidazole-5-carboxamide], the 50% inhibitory concentration (IC50) turned out to be 99 nM. This IC50 lies about 7.1-fold higher than the previous one.
`COC/C=C/C(=O)N1CC(NC(=O)c2c(C)nc(CNc3n[nH]c4cc(Cl)c(C(C)(C)C)cc34)n2C(C)C)C1` [Example 85, (E)-2-(((5-(tert-butyl)-6-chloro-1H-indazol-3-yl)amino)methyl)-1-isopropyl-N-(1-(4-methoxybut-2-enoyl)azetidin-3-yl)-4-methyl-1H-imidazole-5-carboxamide] came in with an IC50 of 196 nM.
As to `C=CC(=O)N1CC(NC(=O)c2cnc(CNc3n[nH]c4cc(Cl)c(C(C)(C)C)cc34)n2Cc2cc(OC)cc(OC)c2)C1` [Example 88, N-(1-acryloylazetidin-3-yl)-2-(((5-(tert-butyl)-6-chloro-1H-indazol-3-yl)amino)methyl)-1-(3,5-dimethoxybenzyl)-1H-imidazole-5-carboxamide], the IC50 is 158 nM.
As to `C=CS(=O)(=O)N1CC(NC(=O)c2c(C)nc(CNc3n[nH]c4cc(Cl)c(C(C)(C)C)cc34)n2C(C)C)C1` [Example 86, 2-(((5-(tert-butyl)-6-chloro-1H-indazol-3-yl)amino)methyl)-1-isopropyl-4-methyl-N-(1-(vinylsulfonyl)azetidin-3-yl)-1H-imidazole-5-carboxamide], half-maximal inhibition (IC50) was put at 58 nM.
On to `C=CC(=O)NC1CN(C(=O)c2c(C)nc(CNc3n[nH]c4cc(Cl)c(C(C)(C)C)cc34)n2C)C1` [Example 46, N-(1-(2-(((5-(tert-butyl)-6-chloro-1H-indazol-3-yl)amino)methyl)-1,4-dimethyl-1H-imidazole-5-carbonyl)azetidin-3-yl) acrylamide], for which the IC50 is 92 nM.
In the case of `C=CC(=O)N1CC(NC(=O)c2c(C(F)F)nc(CNc3n[nH]c4cc(Cl)c(C(C)(C)C)cc34)n2C2CCN(CC)C2)C1` (stereo not shown) [Example 92, N-(1-acryloylazetidin-3-yl)-2-(((5-(tert-butyl)-6-chloro-1H-indazol-3-yl)amino)methyl)-4-(difluoromethyl)-1-(1-ethylpyrrolidin-3-yl)-1H-imidazole-5-carboxamide] it was 10 nM; in that of `C=CC(=O)N1CC(NC(=O)c2c(C(F)F)nc(CNc3n[nH]c4cc(Cl)c(C(C)(C)C)cc34)n2C2CCN(C)C2)C1` (stereo not shown) [Example 91, N-(1-acryloylazetidin-3-yl)-2-(((5-(tert-butyl)-6-chloro-1H-indazol-3-yl)amino)methyl)-4-(difluoromethyl)-1-(1-methylpyrrolidin-3-yl)-1H-imidazole-5-carboxamide], 7 nM.
The molecule `C=CC(=O)N1C[C@H](NC(=O)c2c(C)nc(CNc3n[nH]c4cc(Cl)c(C(C)(C)C)cc34)n2C)[C@@H](C)C1` [Example 60, N-((3R,4S)-1-acryloyl-4-methylpyrrolidin-3-yl)-2-(((5-(tert-butyl)-6-chloro-1H-indazol-3-yl)amino)methyl)-1,4-dimethyl-1H-imidazole-5-carboxamide] came in with an IC50 of 1500 nM. This IC50 is about 210-fold higher than that of the molecule before.
On to `[2H]C([2H])(Nc1n[nH]c2cc(Cl)c(C(C)(C)C)cc12)c1nc(C(F)F)c(C(=O)NC2CN(C(=O)C=C)C2)n1C(C)C` [Example 36, N-(1-acryloylazetidin-3-yl)-2-(((5-(tert-butyl)-6-chloro-1H-indazol-3-yl)amino)methyl-d2)-4-(difluoromethyl)-1-isopropyl-1H-imidazole-5-carboxamide], for which the IC50 came out at 19 nM.
In the case of `C=CC(=O)N1CC(NC(=O)c2c(CC)nc(CNc3n[nH]c4cc(Cl)c(C(C)(C)C)cc34)n2C)C1` [Example 31, N-(1-acryloylazetidin-3-yl)-2-(((5-(tert-butyl)-6-chloro-1H-indazol-3-yl)amino)methyl)-4-ethyl-1-methyl-1H-imidazole-5-carboxamide] it was 642 nM.
`C=CC(=O)N1C[C@H](NC(=O)c2c(C)nc(CNc3n[nH]c4cc(Cl)c(C(C)(C)C)cc34)n2C)[C@@H](OC)C1` [Example 63, N-((3S,4S)-1-acryloyl-4-methoxypyrrolidin-3-yl)-2-(((5-(tert-butyl)-6-chloro-1H-indazol-3-yl)amino)methyl)-1,4-dimethyl-1H-imidazole-5-carboxamide] returned an IC50 of 84 nM. This IC50 lies about 7.6-fold lower than the previous one.
As to `C=CC(=O)N1C[C@@H](C)[C@@H](NC(=O)c2c(F)nc(CNc3n[nH]c4cc(Cl)c(C(C)(C)C)cc34)n2C)C1` [Example 74, N-((3R,4R)-1-acryloyl-4-methylpyrrolidin-3-yl)-2-(((5-(tert-butyl)-6-chloro-1H-indazol-3-yl)amino)methyl)-4-fluoro-1-methyl-1H-imidazole-5-carboxamide], the IC50 is 36 nM.
Under `C=CC(=O)N1C[C@@H](C)[C@@H](NC(=O)c2c(Cl)nc(CNc3n[nH]c4cc(Cl)c(C(C)(C)C)cc34)n2C)C1` [Example 78, N-((3R,4R)-1-acryloyl-4-methylpyrrolidin-3-yl)-2-(((5-(tert-butyl)-6-chloro-1H-indazol-3-yl)amino)methyl)-4-chloro-1-methyl-1H-imidazole-5-carboxamide] stands 20 nM; under `C=CC(=O)N1CC(NC(=O)c2cc(CNc3n[nH]c4cc(Cl)c(C(C)(C)C)cc34)nn2C)C1` [Example 9, N-(1-acryloylazetidin-3-yl)-3-(((5-(tert-butyl)-6-chloro-1H-indazol-3-yl)amino)methyl)-1-methyl-1H-pyrazole-5-carboxamide], 3140 nM.
In the case of `C=CC(=O)N1CC(NC(=O)c2cnc(CNc3n[nH]c4cc(Cl)c(C(C)(C)C)cc34)n2C)C1` [Example 1, N-(1-acryloylazetidin-3-yl)-2-(((5-(tert-butyl)-6-chloro-1H-indazol-3-yl)amino)methyl)-1-methyl-1H-imidazole-5-carboxamide] it was 16 nM; in that of `C=CC(=O)N1CC(NC(=O)c2c(C(F)F)nc(CNc3n[nH]c4cc(Cl)c(C(C)(C)C)cc34)n2C2CCN(C(C)=O)C2)C1` (stereo not shown) [Example 96, 1-(1-Acetylpyrrolidin-3-yl)-N-(1-acryloylazetidin-3-yl)-2-(((5-(tert-butyl)-6-chloro-1H-indazol-3-yl)amino)methyl)-4-(difluoromethyl)-1H-imidazole-5-carboxamide], 4 nM; in that of `C=CC(=O)N1C[C@H](NC(=O)c2c(F)nc(CNc3n[nH]c4cc(Cl)c(C(C)(C)C)cc34)n2C)[C@@H](F)C1` [Example 75, N-((3S,4S)-1-acryloyl-4-fluoropyrrolidin-3-yl)-2-(((5-(tert-butyl)-6-chloro-1H-indazol-3-yl)amino)methyl)-4-fluoro-1-methyl-1H-imidazole-5-carboxamide], 16 nM.
In the case of `C=CC(=O)N1CC(NC(=O)c2c(Cl)nc(CNc3n[nH]c4cc(Cl)c(C(C)(C)C)cc34)n2[C@@H]2CCN(CCOC)C2)C1` [Example 119, (R)-N-(1-acryloylazetidin-3-yl)-2-(((5-(tert-butyl)-6-chloro-1H-indazol-3-yl)amino)methyl)-4-chloro-1-(1-(2-methoxyethyl)pyrrolidin-3-yl)-1H-imidazole-5-carboxamide] it was 11 nM; in that of `C=CC(=O)N1CC(NC(=O)c2c(I)nc(CNc3n[nH]c4cc(Cl)c(C(C)(C)C)cc34)n2C)C1` [Example 26, N-(1-acryloylazetidin-3-yl)-2-(((5-(tert-butyl)-6-chloro-1H-indazol-3-yl)amino)methyl)-4-iodo-1-methyl-1H-imidazole-5-carboxamide], 69 nM.
Molecule `C=CC(=O)N1CC(NC(=O)c2c(Cl)c(CNc3n[nH]c4cc(Cl)c(C(C)(C)C)cc34)nn2C)C1` [Example 6, N-(1-acryloylazetidin-3-yl)-3-(((5-(tert-butyl)-6-chloro-1H-indazol-3-yl)amino)methyl)-4-chloro-1-methyl-1H-pyrazole-5-carboxamide] displayed an IC50 of 791 nM.
Under `C=CC(=O)N1CC(NC(=O)c2c(C#N)nc(CNc3n[nH]c4cc(Cl)c(C(C)(C)C)cc34)n2C)C1` [Example 28, N-(1-acryloylazetidin-3-yl)-2-(((5-(tert-butyl)-6-chloro-1H-indazol-3-yl)amino)methyl)-4-cyano-1-methyl-1H-imidazole-5-carboxamide] stands 70 nM.
In the case of `C=CC(=O)N1CCC(NC(=O)c2c(C)nc(CNc3n[nH]c4cc(Cl)c(C(C)(C)C)cc34)n2C)C1` (stereo not shown) [Example 48, N-(1-acryloylpyrrolidin-3-yl)-2-(((5-(tert-butyl)-6-chloro-1H-indazol-3-yl)amino)methyl)-1,4-dimethyl-1H-imidazole-5-carboxamide], inhibition was half-maximal at 126 nM (IC50). Compared with the last molecule, the IC50 is about 1.8-fold higher.
Turning to `C=CC(=O)N1CC(NC(=O)c2c(C)nc(CNc3n[nH]c4cc(Cl)c(C(C)(C)C)cc34)n2C(F)F)C1` [Example 21, N-(1-acryloylazetidin-3-yl)-2-(((5-(tert-butyl)-6-chloro-1H-indazol-3-yl)amino)methyl)-1-(difluoromethyl)-4-methyl-1H-imidazole-5-carboxamide], it took 58 nM to reach half-maximal inhibition (IC50).
With `C=CC(=O)N1CC(NC(=O)c2c(C)nc(CNc3n[nH]c4cc(Cl)c(C(C)(C)C)cc34)n2CCN(C)C)C1` [Example 16, N-(1-acryloylazetidin-3-yl)-2-(((5-(tert-butyl)-6-chloro-1H-indazol-3-yl)amino)methyl)-1-(2-(dimethylamino)ethyl)-4-methyl-JH-imidazole-5-carboxamide], the half-inhibitory concentration (IC50) was 25 nM.
